In patent publication US8133847B2, “Pyrido[2,3-B]pyrazine derivatives useful as herbicidal compounds” (Syngenta Limited, priority 2006, dated 2012):

What was measured:
Assay in all cases: Example B1 herbicidal action, post-emergence, 96-cell seed trays, climatic chamber
Type in all cases: in vivo
[1] = system: Amaranthus retroflexus (AMARE); conditions: Application post-emergence, 1000 mg/l spray equivalent to 1000 g/ha, evaluated after 9 days
How it was run: (§1)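 Plants at 8–9 days post-sowing (23/17 °C, 13 h light, 50–60% humidity) sprayed post-emergence with 1000 mg/l active ingredient in 10% DMSO, equivalent to 1000 g/ha. Grown on at 24/19 °C, watered twice daily; damage scored after 9 days (0 = none, 100 = total).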

Solanum nigrum (SOLNI) = conditions: Application post-emergence, 1000 mg/l spray equivalent to 1000 g/ha, evaluated after 9 days (100=total damage to plant, 0=no damage to plant)
How it was run: as §1

Stellaria media (STEME) = conditions: Application post-emergence, 1000 mg/l spray equivalent to 1000 g/ha, evaluated after 9 days (100=total damage to plant, 0=no damage to plant)
How it was run: as §1

[2] = system: Nasturtium officinale (NAAOF); design: scale not given here; conditions: Application post-emergence, 1000 mg/l spray equivalent to 1000 g/ha, evaluated after 9 days (100=total damage to plant, 0=no damage to plant)
How it was run: as §1

Row | Compound | damage to plant, Amaranthus retroflexus (AMARE) [1] | damage to plant, Solanum nigrum (SOLNI) (Solanum nigrum (SOLNI)) | damage to plant, Stellaria media (STEME) (Stellaria media (STEME)) | damage to plant, Nasturtium officinale (NAAOF) [2]
1 | CC(C)(C)C(=O)Oc1c(-c2c(F)ccc(F)c2Cl)c(=O)n(CC2CC2)c2nccnc12 [Compound C49] | 3 | 0 | 3 | 0
2 | CC(C)C(=O)Oc1c(-c2c(F)ccc(F)c2Cl)c(=O)n(CC2CC2)c2nccnc12 [Compound C60] | 7 | 7 | 5 | 8
3 | Cc1cc(C(=O)Oc2c(-c3c(F)ccc(F)c3Cl)c(=O)n(C)c3nccnc23)c(C)o1 [Compound C102] | 4 | 7 | 7 | 7
4 | CCn1c(=O)c(-c2c(C)cc(C)cc2C)c(OC(C)=O)c2nccnc21 [Compound C81] | 5 | 4 | 8 | 8
5 | CC(C)(C)C(=O)Oc1c(-c2ccccc2OC(F)(F)F)c(=O)[nH]c2nccnc12 [Compound B17] | 0 | 2 | 0 | 0
6 | CCC(=O)Oc1c(-c2c(Cl)cccc2Cl)c(=O)n(C)c2nccnc12 [Compound C32] | 8 | 2 | 8 | 8
7 | Cn1c(=O)c(-c2ccccc2Cl)c(OC(=O)C(C)(C)C)c2nccnc21 [Compound C50] | 4 | 4 | 7 | 7
8 | CCC(CC)C(=O)Oc1c(-c2c(F)ccc(F)c2Cl)c(=O)n(C)c2nccnc12 [Compound C89] | 5 | 4 | 5 | 5
9 | Cc1ccc(Cl)c(-c2c(OC(=O)C(C)(C)C)c3nccnc3[nH]c2=O)c1F [Compound B37] | 0 | 0 | 5 | 0
10 | Cn1c(=O)c(-c2c(F)ccc(F)c2F)c(OC(=O)C(C)(C)C)c2nccnc21 [Compound C55] | 4 | 0 | 4 | 0
11 | CC(C)Cn1c(=O)c(-c2ccccc2OC(F)(F)F)c(OC(=O)C(C)(C)C)c2nccnc21 [Compound C46] | 0 | 4 | 1 | 1
12 | CCn1c(=O)c(-c2c(F)ccc(F)c2Cl)c(OC(=O)C(C)(C)C)c2nccnc21 [Compound C21] | 8 | 0 | 8 | 8
13 | Cn1c(=O)c(-c2c(F)ccc(F)c2Cl)c(OC(=O)c2ccccc2)c2nccnc21 [Compound C84] | 6 | 8 | 7 | 5
14 | CCn1c(=O)c(-c2c(Cl)ccc(C)c2F)c(OC(=O)C(C)(C)C)c2nccnc21 [Compound C117] | 0 | 5 | 1 | 0
15 | O=c1[nH]c2nccnc2c(O)c1-c1ccc(Cl)cc1Cl [Compound A1] | 0 | 0 | 7 | 5
16 | CCn1c(=O)c(-c2ccccc2Cl)c(OC(C)=O)c2nccnc21 [Compound C185] | 4 | 4 | 10 | 8
17 | CC(C)C(=O)c1c(-c2c(Cl)cccc2Cl)c(=O)n(C)c2nccnc12 [Compound C56] | 8 | 0 | 7 | 7
18 | Cc1noc(C)c1C(=O)Oc1c(-c2c(F)ccc(F)c2Cl)c(=O)n(C)c2nccnc12 [Compound C100] | 6 | 5 | 3 | 6
